Tests used:
[1] = test system: Raji cells; experiment: Raji tumor xenograft model, CAR-T cells prepared as in Example 7; type: in vivo, nod scid gamma (NSG) immunodeficient mice
Procedure: Anti-tumor effects of anti-CD19 CAR-T cell compositions prepared in the presence DMSO, PI-103 or Compound 63 as described in Example 7 were assessed in vivo. The tumor xenograft mouse model was generated by implanting nod scid gamma (NSG) immunodeficient mice with 0.5×10^6 Raji cells (an immortalized human B lymphocyte tumor cell line that expresses CD19), which were allowed to engraft. The Raji cells were transfected with firefly luciferase to facilitate measurement of tumor burden by bioluminescence imaging. After seven days, mice either received no treatment, or treatment with a low dose (0.25×10^6) or a high dose (1.0×10^6) of anti-CD19 CAR+ T cells prepared in the presence of DMSO (vehicle) or DMSO and a mTOR kinase inhibitor. Tumor burden and mortality were assessed weekly.

[2] = test system: CAR-T cells incubated with CD19-expressing target cells; experiment: Intracellular and secreted cytokines of CAR-T cells (mixed CD4+/CD8+ process); type: cell-based, human; details: for levels of secreted cytokines (IL-2, TNF-alpha, IFN-gamma) in supernatants: 20 hours with CD19-antigen expressing cells, ELISA; for polyfunctional effector cytokine profiles (IL-2, TNF-alpha, IFN-gamma) compared to DMSO: CD8+ and CD4+ subsets, primary or secondary stimulation, golgi inhibitor 5 hours
Procedure: (§1) Separate compositions of CD4+ and CD8+ cells were selected from isolated PBMCs from a leukapheresis sample from the same human donor by immunoaffinity based selection, and the selected cell compositions were cryofrozen. The separate compositions of CD4+ and CD8+ T cells were subsequently thawed and mixed at a ratio of 1:1 of viable CD4+ T cells to viable CD8+ T cells. In this study, the mixed CD4+ and CD8+ cell populations were incubated in the presence of Compound 63, PI103 or no inhibitor (DMSO vehicle control) beginning at the initiation of stimulation. In more detail, the mixed CD4+ and CD8+ T cell composition was stimulated (in the presence or absence of an inhibitor, as indicated) in the presence of paramagnetic polystyrene-coated beads with attached anti-CD3 and anti-CD28 antibodies for between 18 to 30 hours, and were then transduced with a lentiviral vector encoding an anti-CD19 CAR. The CAR contained an scFv antigen-binding domain specific for CD19 (derived from FMC63), a CD28 transmembrane region, a 4-1BB costimulatory signaling region, and a CD3-zeta derived intracellular signaling domain. The cells were then expanded in the presence of cytokines typically for approximately 6-7 days. Beginning with stimulation and for the duration of the process, the media contained DMSO (vehicle control), 2 μM PI103 or 1 μM Compound 63. The vehicle control contained DMSO at a volume to match that in the mTOR inhibitor-treated samples. Expanded cells were cryopreserved. For assessment, the cryopreserved CAR-T cells were thawed and washed prior to assessment in assay media without supportive cytokines and without inhibitor or vehicle.
Intracellular cytokine levels were monitored in cells of co-cultures incubated with freshly thawed generated CAR-T cells or CAR-T cells after secondary restimulation with CD19-expressing target cells. CAR-T cells were incubated with target-expressing cells in the presence of golgi inhibitor for 5 hours. Intracellular expression of IL-2, TNF-alpha and IFN-gamma was determined and a polyfunctional score was calculated by gating for cumulative CAR-T cells positive for IL-2 and any combination of IFN-gamma and TNF-alpha. […] Generated CAR-T cells were also cultured with CD19-antigen expressing cells for 20 hours and levels of IL-2, TNF-alpha and IFN-gamma were assessed in cell culture supernatants by ELISA.

[3] = test system: anti-CD19 CAR+ T cells; experiment: Chronic stimulation assay with anti-ID conjugated beads (14 days); type: cell-based, human; details: inhibitor present from initiation of stimulation; for primary or secondary cytolytic response: 3:1 effector:target cell ratio; for primary or secondary responses: ability of CAR-T cell compositions to produce cytokines: at thaw or after 14 day anti-ID bead stimulation, K562-CD19 1:1
Description: Separate compositions of CD4+ and CD8+ cells were isolated from human donors, stimulated by activation with anti-CD3/anti-CD28 magnetic beads and transduced with a viral vector encoding an anti-CD19 CAR having an scFv derived from FMC63. Following cultivation under conditions to expand the cells, T cell compositions containing engineered CD4+ and CD8+ T cells from each donor were then separately harvested, formulated, and cryofrozen. The cryofrozen engineered CD4+ and CD8+ T cells were thawed and formulated at a 1:1 ratio of CD4+ and CD8+ T cells from the same donor to generate a T cell composition containing CAR+ T cells. Anti-idiotype (ID) antibody conjugated beads against the anti-CD19 CAR were incubated with cells at a 1:1 bead:cell ratio for 14 days.
Secondary response of CAR-T cells harvested at day 14 following CAR-specific stimulation with anti-ID conjugated beads (Day 14; secondary) was assessed after stimulation with K562-CD19 antigen-expressing target cells at an effector to target ratio of 1:1 (to assess cytokine levels) or 3:1 (to assess cytolytic activity). The primary response of T cells from the T cell composition that had not been incubated with the anti-ID conjugated beads also was determined by similar stimulation with antigen-expressing cells (Day 0; “primary”). To assess cytolytic activity, the target cells were labeled with NucLight Red (NLR) to permit tracking by fluorescent microscopy. Killing activity was assessed by measuring the loss of viable target cells over 72 hours, as determined by loss of fluorescent signal over time by kinetic fluorescence microscopy (using the INCUCYTE® Live Cell Analysis System, Essen Bioscience). Killing index was determined as the inverse of the area under the curve (AUC) for target fluorescence over time. Intracellular cytokine levels of IL-2 and TNF-alpha were assessed by flow cytometry in co-cultured T cells after incubation in the presence of a Golgi Inhibitor. […]
Primary response of CAR-T cell compositions at thaw (no stimulation with anti-ID conjugated beads) or secondary response of CAR-stimulated CAR-T compositions (following 14 day CAR-specific stimulation with anti-ID conjugated beads) was assessed after stimulation with antigen-expressing cells. CAR-T cell compositions were cultured 1:1 with K562-CD19 antigen-expressing cells in the presence of a Golgi Inhibitor, and polyfunctional cytokine production was assessed by flow cytometry following intracellular cytokine staining for IL-2, IFN-gamma and TNF-alpha. A polyfunctional score was determined from cumulative levels of cytokines as determined in CD8+ cells after the data were normalized by scaling within donor cohorts (FIG. 13A). […]

[4] = test system: CAR-T cells; experiment: Expansion of CAR-T cells on CAR-specific beads for 14 days (mixed CD4+/CD8+ process); type: cell-based, human; details: CAR-T cells prepared with 2 μM PI103 or 1 μM Compound 63
Procedure: as §1, with “The cells were then expanded in the presence of cytokines typically for approximately 6-7 days. Beginning with stimulation and for the duration of the process, the media contained DMSO (vehicle control), 2 μM PI103 or 1 μM Compound 63. The vehicle control contained DMSO at a volume to match that in the mTOR inhibitor-treated samples. Expanded cells were cryopreserved. For assessment, the cryopreserved CAR-T cells were thawed and washed prior to assessment in assay media without supportive cytokines and without inhibitor or vehicle.” left out
Functional attributes of the generated CAR-T cells were assessed in a serial stimulation assay by incubation of the generated CAR-T cells antibody conjugated to beads. […] Every 3-4 days, T cells were, counted.

| SMILES | anti-tumor effects compared to cells produced in the absence of inhibitor (DMSO vehicle) ([1]; CAR-T cells generated from another donor) | levels of secreted cytokines (IL-2, TNF-alpha, IFN-gamma) in supernatants [2] | polyfunctional effector cytokine profiles (IL-2, TNF-alpha, IFN-gamma) compared to DMSO [2] | primary or secondary cytolytic response [3] | primary or secondary responses: ability of CAR-T cell compositions to produce cytokines [3] | expansion after restimulation with CAR-specific beads [4] | in vivo anti-tumor responses compared to absence of inhibitor (DMSO vehicle) ([1]; low (0.25×10^6) or high (1.0×10^6) dose of CAR+ T cells prepared with the inhibitor) |
| --- | --- | --- | --- | --- | --- | --- | --- |
| Oc1cccc(-c2nc(N3CCOCC3)c3oc4ncccc4c3n2)c1 [PI-103, reference compound] | comparable anti-tumor effects | increased levels of secreted cytokines | improved polyfunctional effector cytokine profiles | Improvements in primary or secondary cytolytic response | improved primary or secondary responses | improved expansion after restimulation | – |
| CC(C)c1ccccc1-n1c(=O)[nH]c2c(C(N)=O)nc(-c3cccc(O)c3)nc21 [Compound 63, 2-(3-Hydroxyphenyl)-9-(2-isopropylphenyl)-8-oxo-8,9-dihydro-7H-purine-6-carboxamide] | – | increased levels of secreted cytokines | improved polyfunctional effector cytokine profiles | Improvements in primary or secondary cytolytic response | improved primary or secondary responses | improved expansion after restimulation | improvement in vivo anti-tumor responses |

From patent publication US20210254000A1, “PROCESS FOR PRODUCING A T CELL COMPOSITION” (Juno Therapeutics, Inc., priority 2017, published 2021)
